Measurements from patent US20140179794A1, “LEVOMILNACIPRAN-BASED DRUG FOR FUNCTIONAL RECOVERY AFTER ACUTE NEUROLOGICAL EVENTS” (PIERRE FABRE MEDICAMENT, priority 2011, published 2014).

Test: Binding to the recombinant human alpha1 receptor (prazosin [3H], CHO cell membranes)
From the text: The bound fraction was separated by filtration and washing in cooled TRIS+NaCl+KCl buffer. […] The bound fraction was separated by filtration and washing in cooled TRIS+NaCl+KCl buffer. […] The bound fraction was separated by filtration and washing in cooled TRIS buffer.

SMILES | Ki
CCN(CC)C(=O)C1(c2ccccc2)CC1CN (centres unmarked) [dextromilnacipran] | 3.4 µM
CCN(CC)C(=O)[C@@]1(c2ccccc2)C[C@H]1CN [levomilnacipran] | 110 µM
